Data as given in PubChem BioAssay (NCI).
Values joined by “and” are separate entries in the source; they are usually repeats but may differ in a detail not shown here. Identical values can stand only once.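 Where inhibition never reached the appropriate level, the endpoint shown equals the highest concentration tested. Otherwise, values were interpolated linearly from a five-concentration, 48-hour dose response in 96-well plates. GI50 = concentration required for 50% inhibition of growth. At the TGI there is no net growth.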

Assays:
Assay in all cases: NCI-60 cell line screen, 48 h
786-0 renal = system: 786-0 renal
DU-145 prostate = system: DU-145 prostate
HOP-62 NSCLC = system: HOP-62 NSCLC
HS 578T breast = system: HS 578T breast
MALME-3M melanoma = system: MALME-3M melanoma
MDA-MB-231 breast = system: MDA-MB-231 breast
OVCAR-3 ovarian = system: OVCAR-3 ovarian
OVCAR-4 ovarian = system: OVCAR-4 ovarian
T-47D breast = system: T-47D breast
UO-31 renal = system: UO-31 renal

| SMILES | GI50 (786-0 renal) | TGI (786-0 renal) | GI50 (DU-145 prostate) | TGI (DU-145 prostate) | GI50 (HOP-62 NSCLC) | TGI (HOP-62 NSCLC) | GI50 (HS 578T breast) | TGI (HS 578T breast) | GI50 (MALME-3M melanoma) | TGI (MALME-3M melanoma) | GI50 (MDA-MB-231 breast) | TGI (MDA-MB-231 breast) | GI50 (OVCAR-3 ovarian) | TGI (OVCAR-3 ovarian) | GI50 (OVCAR-4 ovarian) | TGI (OVCAR-4 ovarian) | GI50 (T-47D breast) | TGI (T-47D breast) | GI50 (UO-31 renal) | TGI (UO-31 renal) |
| --- | --- | --- | --- | --- | --- | --- | --- | --- | --- | --- | --- | --- | --- | --- | --- | --- | --- | --- | --- | --- |
| CCN1C(=O)N(CC)C2C1NN=c1s/c(=C\c3ccc(Br)cc3)c(=O)n12 (configuration not stated) | 0.163 µM | > 100 µM | 0.352 µM | > 100 µM | 0.305 µM | > 100 µM | 0.194 µM | > 100 µM | 2.39 µM | > 100 µM | 0.306 µM | > 76.6 µM | 0.102 µM | > 100 µM | 0.388 µM | > 100 µM | 5.11 µM | > 100 µM | 1.51 µM | > 100 µM |
| CC1(/C=C/c2ccc(-c3ccccc3)cc2)CCn2cnc3ncnc(c32)N1O (configuration not stated) | 0.259 µM | 4.49 µM | 0.53 µM | > 56.7 µM | 0.366 µM | 16.4 µM | 3.37 µM | 30.9 µM | 0.412 µM | 14.7 µM | 0.509 µM | 63.2 µM | 0.425 µM | 20.7 µM | 0.298 µM | > 50.2 µM | 0.462 µM | 54.3 µM | 0.162 µM | 1.2 µM |
| COc1ccc(COc2ccc(Cc3cnc(N)nc3N)cc2OC)cc1 | > 25 µM | > 25 µM | > 25 µM | > 25 µM | > 18.4 µM | > 25 µM | > 23.4 µM | > 25 µM | > 5.1 µM | > 25 µM | 23.1 µM | > 25 µM | > 19.4 µM | > 25 µM | 11 µM | > 25 µM | 7.08 µM | > 25 µM | 11.9 µM | > 25 µM |
| O=C(Nc1ccn(C2CCC(COC(c3ccccc3)(c3ccccc3)c3ccccc3)O2)c(=O)n1)c1ccccc1 (configuration not stated) | – | 6.41 µM | – | 15.5 µM | – | 16.3 µM | – | 9.05 µM | – | 9.91 µM | – | 13.9 µM | – | 6.47 µM | – | 7.71 µM | – | 27.9 µM | – | 14.1 µM |
| OCC1OC(N2CCN(C3OC(CO)C(O)C(O)C3O)CC2)C(O)C(O)C1O (configuration not stated) | – | > 100 µM | – | > 100 µM | – | > 100 µM | – | > 100 µM | – | > 100 µM | – | > 100 µM | – | > 100 µM | – | > 100 µM | – | > 100 µM | – | > 100 µM |
| CC#CC#C/C=C1/C=CC2(CCCCO2)O1 (configuration not stated) | – | > 100 µM | – | > 100 µM | – | – | – | > 100 µM | – | > 100 µM | – | > 100 µM | – | – | – | > 100 µM | – | > 100 µM | – | > 100 µM |
| NS(=O)(=O)c1ccc(NC(=O)Nc2cccc3ccccc23)cc1 | – | 38 µM | – | 81.3 µM | – | > 100 µM | – | > 100 µM | – | > 100 µM | – | 41.1 µM | – | > 100 µM | – | > 100 µM | – | > 100 µM | – | 31.8 µM |
| Cc1cccc(Nc2ncc(-c3ccccc3)o2)c1 | > 25 µM | > 25 µM | > 25 µM | > 25 µM | > 25 µM | > 25 µM | > 7 µM | > 25 µM | > 25 µM | > 25 µM | > 18.8 µM | > 25 µM | > 25 µM | > 25 µM | > 25 µM | > 25 µM | > 25 µM | > 25 µM | > 25 µM | > 25 µM |
| c1ccc(OCC[P+](c2ccccc2)(c2ccccc2)c2ccccc2)cc1 | 5.15 µM | 20.8 µM | 2.11 µM | 22.8 µM | 1.41 µM | 11.1 µM | 2.27 µM | 16.5 µM | 1.48 µM | 12.9 µM | 2.44 µM | 23.9 µM | 1.11 µM | 7.69 µM | 0.66 µM | 9.44 µM | 0.265 µM | 2.4 µM | 16.9 µM | > 79 µM |
| N/C(=N/O)NOCCC(N)C(=O)O (configuration not stated) | > 100 µM | > 100 µM | > 100 µM | > 100 µM | > 100 µM | > 100 µM | > 100 µM | > 100 µM | > 100 µM | > 100 µM | > 100 µM | > 100 µM | > 100 µM | > 100 µM | > 100 µM | > 100 µM | > 100 µM | > 100 µM | > 100 µM | > 100 µM |
| Cn1cc(-c2[nH]c3cc(NC(=O)[C@H](N)C4CCCCC4)cc4c3c2C=NNC4=O)cn1 | 0.256 µM and 0.315 µM | – | 0.508 µM and 0.528 µM | 19.8 µM and > 10 µM | 0.401 µM and 0.343 µM | 12.3 µM and > 10 µM | 0.185 µM and 0.247 µM | 2.59 µM and 1.81 µM | 2.22 µM and 0.517 µM | 24.7 µM and > 10 µM | 0.866 µM and 0.562 µM | 12.4 µM and > 10 µM | 0.229 µM and 0.144 µM | 3.02 µM and 3.73 µM | 0.184 µM and 0.217 µM | 10.5 µM and > 10 µM | 15 µM | 31.3 µM | 2.54 µM and 2.35 µM | 9.07 µM and > 10 µM |
| CC(=O)OCc1cc[c]([Hg][Cl])o1 | 3.88 µM | 13.2 µM | 13.6 µM | 26.4 µM | 13.8 µM | 28.6 µM | 9.99 µM | 65.6 µM | 1.6 µM | 3.27 µM | 2.59 µM | 7.81 µM | 3.97 µM | 16.2 µM | 12.7 µM | 43 µM | 1.36 µM | 3.98 µM | 1.82 µM | 3.45 µM |
| Cc1ccccc1N=C(c1ccccc1)C1C(=O)c2ccccc2C1=O | 7.05 µM | 36 µM | 22.4 µM | 69.6 µM | 18.2 µM | 63.9 µM | 18.3 µM | 95.3 µM | 0.562 µM | 6.66 µM | 21.3 µM | > 100 µM | 1.32 µM | 5.63 µM | 20.4 µM | > 100 µM | 4.12 µM | 36.5 µM | 4.14 µM | 47.4 µM |
| COc1ccc(C2CC(=O)Nc3c2c(C)nn3-c2nc3ccccc3[nH]2)cc1OC (configuration not stated) | 5.2 µM | 24.8 µM | 6.87 µM | 27.1 µM | 4.32 µM | 24.4 µM | 4.49 µM | > 100 µM | 4.94 µM | 29 µM | 4.39 µM | 21 µM | 3.99 µM | 14 µM | 6.42 µM | > 100 µM | 4.49 µM | 50.1 µM | 3.37 µM | 14.6 µM |
